Experimental data from the kinase profiling compilation of Christmann-Franck et al. (2016).

How the values were obtained:
Experiment in all cases: radiometric filter-binding kinase assay, Kinase HotSpot
Conditions in all cases: compound 0.5 µM; ATP 10 µM
[1] = molecular target: GSK3B (human) (UniProt P49841)
[2] = molecular target: MAP3K10 (human) (UniProt Q02779)
[3] = molecular target: CDK4 CCND3 (human) (UniProt P30281+P11802)
[4] = molecular target: HIPK1 (human) (UniProt Q86Z02)
[5] = molecular target: CDK2 CCNA2 (human) (UniProt P24941+P20248)
CDK2 CCNA2 (human), sequence (P20248 whole entry, looked up, other chains not shown): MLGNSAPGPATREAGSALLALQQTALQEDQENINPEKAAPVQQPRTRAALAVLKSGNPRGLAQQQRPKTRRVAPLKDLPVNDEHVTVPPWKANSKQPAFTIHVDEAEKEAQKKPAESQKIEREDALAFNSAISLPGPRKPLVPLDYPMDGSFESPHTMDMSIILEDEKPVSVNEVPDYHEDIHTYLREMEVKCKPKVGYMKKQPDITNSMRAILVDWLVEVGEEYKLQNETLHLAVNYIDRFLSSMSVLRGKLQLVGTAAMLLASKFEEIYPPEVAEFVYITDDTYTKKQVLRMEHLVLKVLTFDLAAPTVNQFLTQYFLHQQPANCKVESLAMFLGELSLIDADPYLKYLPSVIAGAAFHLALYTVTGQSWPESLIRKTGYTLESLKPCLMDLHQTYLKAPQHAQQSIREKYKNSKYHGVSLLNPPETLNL

[6] = molecular target: NTRK1 (human) (UniProt P04629)
[7] = molecular target: TSSK1B (human) (UniProt Q9BXA7)
[8] = molecular target: RAF1 (human) (UniProt P04049)
[9] = molecular target: MAP3K5 (human) (UniProt Q99683)
[10] = molecular target: MERTK (human) (UniProt Q12866)
[11] = molecular target: AKT2 (human) (UniProt P31751)
[12] = molecular target: GSG2 (human) (UniProt Q8TF76)
GSG2 (human), sequence (Q8TF76 whole entry, looked up): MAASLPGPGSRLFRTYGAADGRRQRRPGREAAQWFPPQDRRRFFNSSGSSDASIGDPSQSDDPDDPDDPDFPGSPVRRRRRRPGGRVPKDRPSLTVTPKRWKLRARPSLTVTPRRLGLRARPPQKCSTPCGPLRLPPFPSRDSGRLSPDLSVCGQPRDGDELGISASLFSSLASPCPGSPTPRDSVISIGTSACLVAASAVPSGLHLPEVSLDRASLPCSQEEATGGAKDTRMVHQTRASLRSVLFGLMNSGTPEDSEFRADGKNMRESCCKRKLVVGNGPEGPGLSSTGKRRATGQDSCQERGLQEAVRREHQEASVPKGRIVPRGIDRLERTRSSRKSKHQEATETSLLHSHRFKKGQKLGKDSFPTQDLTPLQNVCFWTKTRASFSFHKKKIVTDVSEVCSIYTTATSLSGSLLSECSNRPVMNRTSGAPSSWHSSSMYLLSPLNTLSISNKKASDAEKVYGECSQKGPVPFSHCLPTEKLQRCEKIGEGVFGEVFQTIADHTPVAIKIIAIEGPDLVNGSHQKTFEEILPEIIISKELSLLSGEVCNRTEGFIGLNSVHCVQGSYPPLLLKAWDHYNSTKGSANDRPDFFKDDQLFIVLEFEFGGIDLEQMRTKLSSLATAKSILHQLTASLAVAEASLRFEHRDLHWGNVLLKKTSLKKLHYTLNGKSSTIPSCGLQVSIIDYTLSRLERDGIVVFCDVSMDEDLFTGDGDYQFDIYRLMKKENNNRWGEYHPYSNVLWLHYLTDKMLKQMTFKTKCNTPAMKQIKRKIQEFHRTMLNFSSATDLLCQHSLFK

[13] = molecular target: HIPK4 (human) (UniProt Q8NE63)
HIPK4 (human), sequence (Q8NE63 whole entry, looked up): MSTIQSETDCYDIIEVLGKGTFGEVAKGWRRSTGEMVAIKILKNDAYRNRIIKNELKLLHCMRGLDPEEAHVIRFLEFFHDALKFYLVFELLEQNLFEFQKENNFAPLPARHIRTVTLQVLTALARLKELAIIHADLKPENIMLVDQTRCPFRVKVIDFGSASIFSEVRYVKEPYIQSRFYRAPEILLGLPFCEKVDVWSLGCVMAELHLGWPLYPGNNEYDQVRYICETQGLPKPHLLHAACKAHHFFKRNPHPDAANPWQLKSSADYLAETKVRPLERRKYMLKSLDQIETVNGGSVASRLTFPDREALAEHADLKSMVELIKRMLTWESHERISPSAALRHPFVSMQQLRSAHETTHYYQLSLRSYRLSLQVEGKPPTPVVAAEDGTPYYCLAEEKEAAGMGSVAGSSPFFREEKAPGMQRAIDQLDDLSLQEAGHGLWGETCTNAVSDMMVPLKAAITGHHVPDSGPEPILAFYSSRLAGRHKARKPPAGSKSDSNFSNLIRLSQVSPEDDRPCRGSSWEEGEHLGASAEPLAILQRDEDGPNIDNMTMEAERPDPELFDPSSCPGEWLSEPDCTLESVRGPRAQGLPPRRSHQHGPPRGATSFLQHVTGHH

[14] = molecular target: FLT1 (human) (UniProt P17948)
[15] = molecular target: NUAK2 (human) (UniProt Q9H093)
[16] = molecular target: CAMKK1 (human) (UniProt Q8N5S9)
[17] = molecular target: SYK (human) (UniProt P43405)
[18] = molecular target: SRPK2 (human) (UniProt P78362)
[19] = molecular target: BTK (human) (UniProt Q06187)
BTK (human), sequence (Q06187 whole entry, looked up): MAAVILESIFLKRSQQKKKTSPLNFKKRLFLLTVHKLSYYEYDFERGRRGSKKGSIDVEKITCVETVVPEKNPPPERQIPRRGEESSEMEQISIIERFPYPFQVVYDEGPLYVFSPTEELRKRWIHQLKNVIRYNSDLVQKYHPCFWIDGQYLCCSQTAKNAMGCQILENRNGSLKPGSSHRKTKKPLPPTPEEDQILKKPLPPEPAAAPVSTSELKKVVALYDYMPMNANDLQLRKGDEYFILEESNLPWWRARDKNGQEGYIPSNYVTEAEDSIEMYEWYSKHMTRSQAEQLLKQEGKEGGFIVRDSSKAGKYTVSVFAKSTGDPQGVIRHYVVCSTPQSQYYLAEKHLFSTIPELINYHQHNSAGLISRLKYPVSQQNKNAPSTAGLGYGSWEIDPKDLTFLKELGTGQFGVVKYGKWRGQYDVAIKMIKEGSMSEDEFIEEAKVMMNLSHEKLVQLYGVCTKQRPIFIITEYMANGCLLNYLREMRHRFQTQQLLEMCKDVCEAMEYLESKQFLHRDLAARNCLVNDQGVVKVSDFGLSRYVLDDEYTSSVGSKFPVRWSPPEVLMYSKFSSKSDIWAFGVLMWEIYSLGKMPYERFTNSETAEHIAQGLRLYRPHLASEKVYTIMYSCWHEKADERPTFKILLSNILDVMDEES

[20] = molecular target: TSSK2 (human) (UniProt Q96PF2)
[21] = molecular target: CHUK (human) (UniProt O15111)
[22] = molecular target: PKN1 (human) (UniProt Q16512)
[23] = molecular target: CDK5 CDK5R1 p35 (human) (UniProt Q00535+Q15078)
[24] = molecular target: MAP3K14 (human) (UniProt Q99558)
MAP3K14 (human), sequence (Q99558 whole entry, looked up): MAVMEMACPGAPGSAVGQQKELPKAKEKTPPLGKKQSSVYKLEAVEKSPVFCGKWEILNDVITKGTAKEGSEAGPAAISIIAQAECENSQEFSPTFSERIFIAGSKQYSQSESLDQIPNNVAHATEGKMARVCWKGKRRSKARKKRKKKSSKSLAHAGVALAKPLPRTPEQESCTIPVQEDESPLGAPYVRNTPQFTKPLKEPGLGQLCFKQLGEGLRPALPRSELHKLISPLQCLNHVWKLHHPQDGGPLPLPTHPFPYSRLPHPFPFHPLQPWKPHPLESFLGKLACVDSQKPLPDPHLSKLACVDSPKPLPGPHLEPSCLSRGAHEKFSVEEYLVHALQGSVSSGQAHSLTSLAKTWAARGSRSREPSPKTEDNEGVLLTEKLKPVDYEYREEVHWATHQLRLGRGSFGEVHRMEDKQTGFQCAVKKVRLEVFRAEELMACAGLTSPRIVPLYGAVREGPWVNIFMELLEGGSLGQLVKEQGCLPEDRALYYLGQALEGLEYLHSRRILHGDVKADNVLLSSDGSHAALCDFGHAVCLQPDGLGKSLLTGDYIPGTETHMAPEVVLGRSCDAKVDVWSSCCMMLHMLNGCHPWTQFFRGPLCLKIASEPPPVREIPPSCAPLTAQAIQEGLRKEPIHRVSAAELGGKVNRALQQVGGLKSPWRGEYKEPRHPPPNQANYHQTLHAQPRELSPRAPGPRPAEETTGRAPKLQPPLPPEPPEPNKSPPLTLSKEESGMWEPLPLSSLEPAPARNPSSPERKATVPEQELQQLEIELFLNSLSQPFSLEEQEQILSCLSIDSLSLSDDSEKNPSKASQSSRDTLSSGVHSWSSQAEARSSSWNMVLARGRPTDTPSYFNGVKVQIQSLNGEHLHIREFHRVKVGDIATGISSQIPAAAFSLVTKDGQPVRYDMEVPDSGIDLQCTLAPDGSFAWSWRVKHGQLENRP

[25] = molecular target: CAMK2G (human) (UniProt Q13555)
[26] = molecular target: PBK (human) (UniProt Q96KB5)
[27] = molecular target: PLK2 (human) (UniProt Q9NYY3)
[28] = molecular target: CSNK1D (human) (UniProt P48730)
[29] = molecular target: NEK2 (human) (UniProt P51955)
[30] = molecular target: JAK2 JH1 JH2 (human) (UniProt O60674)
[31] = molecular target: FYN (human) (UniProt P06241)
FYN (human), sequence (P06241 whole entry, looked up): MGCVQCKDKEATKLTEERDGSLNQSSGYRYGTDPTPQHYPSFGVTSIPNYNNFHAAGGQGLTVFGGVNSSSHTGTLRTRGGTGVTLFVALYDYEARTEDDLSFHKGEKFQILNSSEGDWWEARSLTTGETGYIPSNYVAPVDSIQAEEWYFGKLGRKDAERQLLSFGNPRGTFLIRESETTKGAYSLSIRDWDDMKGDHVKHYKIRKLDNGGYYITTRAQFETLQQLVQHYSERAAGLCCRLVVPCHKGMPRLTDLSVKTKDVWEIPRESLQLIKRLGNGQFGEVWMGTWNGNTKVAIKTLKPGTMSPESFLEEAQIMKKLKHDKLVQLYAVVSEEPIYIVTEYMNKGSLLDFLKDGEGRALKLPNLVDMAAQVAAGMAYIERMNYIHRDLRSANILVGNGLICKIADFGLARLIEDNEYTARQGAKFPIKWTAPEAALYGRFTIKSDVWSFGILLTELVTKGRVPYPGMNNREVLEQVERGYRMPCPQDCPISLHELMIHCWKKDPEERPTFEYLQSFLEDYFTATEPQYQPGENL

[32] = molecular target: ZAP70 (human) (UniProt P43403)
[33] = molecular target: STK4 (human) (UniProt Q13043)
STK4 (human), sequence (Q13043 whole entry, looked up): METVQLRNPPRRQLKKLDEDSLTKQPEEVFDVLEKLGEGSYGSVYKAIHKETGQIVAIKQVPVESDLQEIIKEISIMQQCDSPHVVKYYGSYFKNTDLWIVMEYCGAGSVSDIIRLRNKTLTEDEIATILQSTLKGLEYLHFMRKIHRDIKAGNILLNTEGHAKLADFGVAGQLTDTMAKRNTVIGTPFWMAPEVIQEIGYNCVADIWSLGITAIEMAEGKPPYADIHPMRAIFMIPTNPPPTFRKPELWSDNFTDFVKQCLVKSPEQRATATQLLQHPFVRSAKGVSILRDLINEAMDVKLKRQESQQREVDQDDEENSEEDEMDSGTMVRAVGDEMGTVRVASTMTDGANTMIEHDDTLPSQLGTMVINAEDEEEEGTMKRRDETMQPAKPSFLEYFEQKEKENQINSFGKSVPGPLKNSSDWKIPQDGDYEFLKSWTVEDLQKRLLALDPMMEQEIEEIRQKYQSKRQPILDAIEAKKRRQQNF

[34] = molecular target: AURKC (human) (UniProt Q9UQB9)
[35] = molecular target: TYK2 JH1 catalytic (human) (UniProt P29597)
[36] = molecular target: IRAK1 (human) (UniProt P51617)
[37] = molecular target: ITK (human) (UniProt Q08881)
[38] = molecular target: CDK2 CCNE1 (human) (UniProt P24941+P24864)
[39] = molecular target: MAP4K4 (human) (UniProt O95819)
[40] = molecular target: SRPK3 (human) (UniProt Q9UPE1)
[41] = molecular target: ADRBK1 (human) (UniProt P25098)
[42] = molecular target: MAPK13 (human) (UniProt O15264)

GSK3B (human), sequence (P49841 whole entry, looked up): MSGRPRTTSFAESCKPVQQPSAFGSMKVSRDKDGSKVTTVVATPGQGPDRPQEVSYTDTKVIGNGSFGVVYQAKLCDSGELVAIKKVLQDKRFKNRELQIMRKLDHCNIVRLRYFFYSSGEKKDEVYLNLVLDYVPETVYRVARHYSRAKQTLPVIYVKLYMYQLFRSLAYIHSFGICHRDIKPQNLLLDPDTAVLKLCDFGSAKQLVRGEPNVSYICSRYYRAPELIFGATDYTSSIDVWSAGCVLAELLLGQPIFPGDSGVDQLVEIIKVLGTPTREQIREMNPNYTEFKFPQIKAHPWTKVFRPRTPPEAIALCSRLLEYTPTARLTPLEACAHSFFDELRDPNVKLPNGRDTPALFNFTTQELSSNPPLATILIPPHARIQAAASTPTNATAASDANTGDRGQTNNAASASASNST

Nc1nccc(-c2c(-c3ccc(F)cc3)ncn2C2CCNCC2)n1
residual activity [1]: 101%
residual activity [2]: 99.8%
residual activity [3]: 104%
residual activity [4]: 101%
residual activity [5]: 100%
residual activity [6]: 100%
residual activity [7]: 106%
residual activity [8]: 90.9%
residual activity [9]: 102%
residual activity [10]: 98%
residual activity [11]: 94.8%
residual activity [12]: 91.4%
residual activity [13]: 96.6%
residual activity [14]: 89.3%
residual activity [15]: 122%
residual activity [16]: 103%
residual activity [17]: 98%
residual activity [18]: 96.4%
residual activity [19]: 100%
residual activity [20]: 100%
residual activity [21]: 101%
residual activity [22]: 96.3%
residual activity [23]: 102%
residual activity [24]: 107%
residual activity [25]: 93%
residual activity [26]: 94.9%
residual activity [27]: 93%
residual activity [28]: 1.25%
residual activity [29]: 103%
residual activity [30]: 99.6%
residual activity [31]: 91.1%
residual activity [32]: 92.3%
residual activity [33]: 103%
residual activity [34]: 97.8%
residual activity [35]: 99.8%
residual activity [36]: 114%
residual activity [37]: 90.5%
residual activity [38]: 92.1%
residual activity [39]: 76.3%
residual activity [40]: 99.3%
residual activity [41]: 99.7%

O=C1NC(=O)C(c2cn(CCCO)c3ncccc23)=C1c1cnccn1
residual activity [1]: 25.2%
residual activity [2]: 91.3%
residual activity [3]: 95.9%
residual activity [4]: 84.2%
residual activity [5]: 94.8%
residual activity [6]: 88.1%
residual activity [7]: 94.9%
residual activity [8]: 100%
residual activity [9]: 88.9%
residual activity [10]: 78.7%
residual activity [11]: 114%
residual activity [12]: 91.9%
residual activity [13]: 104%
residual activity [14]: 89.4%
residual activity [15]: 92.3%
residual activity [16]: 107%
residual activity [17]: 60%
residual activity [18]: 97.9%
residual activity [19]: 93.7%
residual activity [20]: 119%
residual activity [22]: 97.8%
residual activity [23]: 73.9%
residual activity [24]: 78.1%
residual activity [25]: 90.6%
residual activity [26]: 94.9%
residual activity [27]: 104%
residual activity [28]: 99.4%
residual activity [29]: 97.5%
residual activity [30]: 97.8%
residual activity [31]: 107%
residual activity [32]: 87.8%
residual activity [33]: 83.6%
residual activity [34]: 113%
residual activity [35]: 96.9%
residual activity [42]: 96.5%
residual activity [36]: 76.6%
residual activity [37]: 84.7%
residual activity [38]: 85.1%
residual activity [39]: 36.4%
residual activity [40]: 91.2%
residual activity [41]: 114%

COc1ccc(OC)c2c(=S)c3ccccc3[nH]c12
residual activity [1]: 61.3%
residual activity [2]: 92.8%
residual activity [3]: 95.5%
residual activity [4]: 107%
residual activity [5]: 88.6%
residual activity [6]: 87.5%
residual activity [7]: 114%
residual activity [8]: 88.2%
residual activity [9]: 115%
residual activity [10]: 86.7%
residual activity [11]: 94.6%
residual activity [12]: 89.2%
residual activity [13]: 97.3%
residual activity [14]: 101%
residual activity [15]: 98.9%
residual activity [16]: 108%
residual activity [17]: 100%
residual activity [18]: 95.1%
residual activity [19]: 102%
residual activity [20]: 108%
residual activity [21]: 94.3%
residual activity [22]: 109%
residual activity [23]: 86.4%
residual activity [24]: 96%
residual activity [25]: 95.8%
residual activity [26]: 107%
residual activity [27]: 97.6%
residual activity [28]: 101%
residual activity [30]: 96%
residual activity [31]: 101%
residual activity [32]: 100%
residual activity [33]: 96.8%
residual activity [34]: 88.2%
residual activity [35]: 108%
residual activity [42]: 103%
residual activity [36]: 91.1%
residual activity [37]: 101%
residual activity [38]: 77.9%
residual activity [39]: 101%
residual activity [40]: 96.8%
residual activity [41]: 92.5%

CN([C@@H](Cc1ccc(OS(=O)(=O)c2cccc3cnccc23)cc1)C(=O)N1CCN(c2ccccc2)CC1)S(=O)(=O)c1cccc2cnccc12
residual activity [1]: 96.6%
residual activity [2]: 92.6%
residual activity [3]: 97.8%
residual activity [4]: 110%
residual activity [5]: 99.8%
residual activity [6]: 111%
residual activity [7]: 95.4%
residual activity [8]: 96.9%
residual activity [9]: 99.2%
residual activity [10]: 100%
residual activity [11]: 106%
residual activity [12]: 94.7%
residual activity [13]: 105%
residual activity [14]: 86.5%
residual activity [15]: 88.7%
residual activity [16]: 108%
residual activity [17]: 98.7%
residual activity [18]: 99.4%
residual activity [19]: 97.1%
residual activity [20]: 105%
residual activity [21]: 93.4%
residual activity [22]: 105%
residual activity [23]: 99.5%
residual activity [24]: 90.7%
residual activity [26]: 99.2%
residual activity [27]: 102%
residual activity [28]: 109%
residual activity [29]: 87.4%
residual activity [30]: 96.6%
residual activity [31]: 101%
residual activity [32]: 99.5%
residual activity [33]: 96.8%
residual activity [34]: 98.2%
residual activity [35]: 110%
residual activity [42]: 102%
residual activity [36]: 95.4%
residual activity [37]: 99.4%
residual activity [38]: 94.9%
residual activity [39]: 94.8%
residual activity [40]: 98%
residual activity [41]: 97.5%
